Target: human JAK1 (a.a. 837-1142)
Experiment: In vitro JAK kinase assay (HTRF, phosphorylation of a biotinylated peptide), JAK1
Format: biochemical
Settings: measured at 1 mM ATP; JAK2 IC50 / JAK1 IC50
Procedure, shortened: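 N-terminally His-tagged catalytic domains, baculovirus-expressed in insect cells and purified, were used as enzyme. Reactions ran 1 hr at room temperature and were stopped with a mix of 45 mM EDTA, 300 nM SA-APC and 6 nM Eu-Py20. The HTRF signal was read after 40 min of antibody binding.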

| IC50 Ratio JAK2/JAK1 | Compound |
| --- | --- |
| 12.0 | N#CCC1(n2cc(-c3ncnc4[nH]ccc34)cn2)CN(C2CCN(C(=O)Nc3ccccc3Cl)CC2)C1 [Example 163, N-(2-chlorophenyl)-4-{3-(cyanomethyl)-3-[4-(7H-pyrrolo[2,3-d]pyrimidin-4-yl)-1H-pyrazol-1-yl]azetidin-1-yl}piperidine-1-carboxamide] |
| 5.5 | N#CCC1(n2cc(-c3ncnc4[nH]ccc34)cn2)CN(C2CCN(C(=O)Nc3cccc(C(F)(F)F)c3)CC2)C1 [Example 166, 4-{3-(cyanomethyl)-3-[4-(7H-pyrrolo[2,3-d]pyrimidin-4-yl)-1H-pyrazol-1-yl]azetidin-1-yl}-N-[3-(trifluoromethyl)phenyl]piperidine-1-carboxamide] |
| 2.0 | N#CCC1(n2cc(-c3ncnc4[nH]ccc34)cn2)CN(C2CCN(C(=O)Nc3ccc(C(F)(F)F)cc3)CC2)C1 [Example 167, 4-{3-(cyanomethyl)-3-[4-(7H-pyrrolo[2,3-d]pyrimidin-4-yl)-1H-pyrazol-1-yl]azetidin-1-yl}-N-[4-(trifluoromethyl)phenyl]piperidine-1-carboxamide] |
| 2.6 | Cc1ccc(Cl)cc1NC(=O)N1CCC(N2CC(CC#N)(n3cc(-c4ncnc5[nH]ccc45)cn3)C2)CC1 [Example 168, N-(5-chloro-2-methylphenyl)-4-{3-(cyanomethyl)-3-[4-(7H-pyrrolo[2,3-d]pyrimidin-4-yl)-1H-pyrazol-1-yl]azetidin-1-yl}piperidine-1-carboxamide] |
| 5.5 | N#CCC1(n2cc(-c3ncnc4[nH]ccc34)cn2)CN(C2CCN(C(=O)Nc3ccccc3F)CC2)C1 [Example 169, 4-{3-(cyanomethyl)-3-[4-(7H-pyrrolo[2,3-d]pyrimidin-4-yl)-1H-pyrazol-1-yl]azetidin-1-yl}-N-(2-fluorophenyl)piperidine-1-carboxamide] |
| 6.9 | N#CCC1(n2cc(-c3ncnc4[nH]ccc34)cn2)CN(C2CCN(C(=O)Nc3cccc(C(F)(F)F)c3F)CC2)C1 [Example 170, 4-{3-(cyanomethyl)-3-[4-(7H-pyrrolo[2,3-d]pyrimidin-4-yl)-1H-pyrazol-1-yl]azetidin-1-yl}-N-[2-fluoro-3-(trifluoromethyl)phenyl]piperidine-1-carboxamide] |
| 7.5 | N#CCC1(n2cc(-c3ncnc4[nH]ccc34)cn2)CN(C2CCN(C(=O)Nc3ccc(F)cc3F)CC2)C1 [Example 171, 4-{3-(cyanomethyl)-3-[4-(7H-pyrrolo[2,3-d]pyrimidin-4-yl)-1H-pyrazol-1-yl]azetidin-1-yl}-N-(2,4-difluorophenyl) piperidine-1-carboxamide] |
| 5.7 | N#CCC1(n2cc(-c3ncnc4[nH]ccc34)cn2)CN(C2CCN(C(=O)Nc3cc(F)cc(F)c3F)CC2)C1 [Example 173, 4-{3-(cyanomethyl)-3-[4-(7H-pyrrolo[2,3-d]pyrimidin-4-yl)-1H-pyrazol-1-yl]azetidin-1-yl}-N-(2,3,5-trifluorophenyl)piperidine-1-carboxamide] |
| 7.1 | N#CCC1(n2cc(-c3ncnc4[nH]ccc34)cn2)CN(C2CCN(C(=O)Nc3cc(F)ccc3F)CC2)C1 [Example 174, 4-{3-(cyanomethyl)-3-[4-(7H-pyrrolo[2,3-d]pyrimidin-4-yl)-1H-pyrazol-1-yl]azetidin-1-yl}-N-(2,5-difluorophenyl) piperidine-1-carboxamide] |
| 3.6 | N#CCC1(n2cc(-c3ncnc4[nH]ccc34)cn2)CN(C2CCN(C(=O)Nc3cc(F)cc(F)c3)CC2)C1 [Example 175, 4-{3-(cyanomethyl)-3-[4-(7H-pyrrolo[2,3-d]pyrimidin-4-yl)-1H-pyrazol-1-yl]azetidin-1-yl}-N-(3,5-difluorophenyl) piperidine-1-carboxamide] |
| 8.5 | N#CCC1(n2cc(-c3ncnc4[nH]ccc34)cn2)CN(C2CCN(C(=O)Nc3cccc(Cl)c3F)CC2)C1 [Example 177, N-(3-chloro-2-fluorophenyl)-4-{3-(cyanomethyl)-3-[4-(7H-pyrrolo[2,3-d]pyrimidin-4-yl)-1H-pyrazol-1-yl]azetidin-1-yl}piperidine-1-carboxamide] |
| 6.5 | N#CCC1(n2cc(-c3ncnc4[nH]ccc34)cn2)CN(C2CCN(C(=O)Nc3ccc(Cl)cc3F)CC2)C1 [Example 178, N-(4-chloro-2-fluorophenyl)-4-{3-(cyanomethyl)-3-[4-(7H-pyrrolo[2,3-d]pyrimidin-4-yl)-1H-pyrazol-1-yl]azetidin-1-yl}piperidine-1-carboxamide] |
| 3.8 | N#CCC1(n2cc(-c3ncnc4[nH]ccc34)cn2)CN(C2CCN(C(=O)Nc3ccsc3)CC2)C1 [Example 179, 4-{3-(cyanomethyl)-3-[4-(7H-pyrrolo[2,3-d]pyrimidin-4-yl)-1H-pyrazol-1-yl]azetidin-1-yl}-N-3-thienylpiperidine-1-carboxamide] |
| 4.0 | COc1ccccc1NC(=O)N1CCC(N2CC(CC#N)(n3cc(-c4ncnc5[nH]ccc45)cn3)C2)CC1 [Example 180, 4-{3-(cyanomethyl)-3-[4-(7H-pyrrolo[2,3-d]pyrimidin-4-yl)-1H-pyrazol-1-yl]azetidin-1-yl}-N-(2-methoxyphenyl)piperidine-1-carboxamide] |
| 4.9 | COc1cccc(NC(=O)N2CCC(N3CC(CC#N)(n4cc(-c5ncnc6[nH]ccc56)cn4)C3)CC2)c1 [Example 181, 4-{3-(cyanomethyl)-3-[4-(7H-pyrrolo[2,3-d]pyrimidin-4-yl)-1H-pyrazol-1-yl]azetidin-1-yl}-N-(3-methoxyphenyl)piperidine-1-carboxamide] |
| 3.7 | N#CCC1(n2cc(-c3ncnc4[nH]ccc34)cn2)CN(C2CCN(C(=O)Nc3ccc(OC(F)(F)F)cc3)CC2)C1 [Example 182, 4-{3-(cyanomethyl)-3-[4-(7H-pyrrolo[2,3-d]pyrimidin-4-yl)-1H-pyrazol-1-yl]azetidin-1-yl}-N-[4-(trifluoromethoxy)phenyl]piperidine-1-carboxamide] |
| 3.8 | N#CCC1(n2cc(-c3ncnc4[nH]ccc34)cn2)CN(C2CCN(C(=O)Nc3cccc(Cl)c3)CC2)C1 [Example 183, N-(3-chlorophenyl)-4-{3-(cyanomethyl)-3-[4-(7H-pyrrolo[2,3-d]pyrimidin-4-yl)-1H-pyrazol-1-yl]azetidin-1-yl}piperidine-1-carboxamide] |
| 3.9 | N#CCC1(n2cc(-c3ncnc4[nH]ccc34)cn2)CN(C2CCN(C(=O)Nc3ccc(Cl)cc3)CC2)C1 [Example 184, N-(4-chlorophenyl)-4-{3-(cyanomethyl)-3-[4-(7H-pyrrolo[2,3-d]pyrimidin-4-yl)-1H-pyrazol-1-yl]azetidin-1-yl}piperidine-1-carboxamide] |
| 9.5 | Cc1ccccc1NC(=O)N1CCC(N2CC(CC#N)(n3cc(-c4ncnc5[nH]ccc45)cn3)C2)CC1 [Example 185, 4-{3-(cyanomethyl)-3-[4-(7H-pyrrolo[2,3-d]pyrimidin-4-yl)-1H-pyrazol-1-yl]azetidin-1-yl}-N-(2-methylphenyl) piperidine-1-carboxamide] |

| Compound | IC50 Ratio JAK2/JAK1 |
| --- | --- |
| N#CCC1(n2cc(-c3ncnc4[nH]ccc34)cn2)CN(C2CCN(C(=O)Nc3ccc(F)c(F)c3)CC2)C1 [Example 176, 4-{3-(cyanomethyl)-3-[4-(7H-pyrrolo[2,3-d]pyrimidin-4-yl)-1H-pyrazol-1-yl]azetidin-1-yl}-N-(3,4-difluorophenyl) piperidine-1-carboxamide] | 5.1 |
